Laboratory results reported in patent publication US12612412B2, “Antiviral heterocyclic compounds” (Enanta Pharmaceuticals, Inc., priority 2021, dated 2026).

Each compound was assayed on genotype A, "Long" strain RSV (assay: RSV-A assay (CPE protection in Hep-2 cells, ATPlite readout)). Details: human respiratory syncytial virus, RSV-A Long strain, MOI 0.1, CPE protection, read-out: Human RSV-A (“Long”) EC50.
Type: cell-based, Human respiratory syncytial virus (HRSV)
How it was run: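 In this cytopathic-effect protection format, infected Hep-2 cultures (MOI 0.1) are exposed to compound for 5 days. Surviving cell ATP is quantified with ATPlite, and EC50 is determined.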

EC50 | Structure (SMILES)
> 200 nM | COc1cc(C(=O)NC[C@@](O)(c2cc3c(c(-c4ccc5c(c4)OC(F)(F)O5)n2)OC[C@]3(C)C(N)=O)C(F)(F)F)cc2cn(C3CC3)nc12 [Example 894]
< 200 nM | COc1cc(C(=O)NC[C@](O)(c2cc3c(c(-c4ccc5c(c4)OC(F)(F)O5)n2)OC[C@]3(C)C(N)=O)C2CC2)cc2sc(C3CC3)nc12 [Example 1293]
< 200 nM | COc1cc(C(=O)NC[C@](O)(c2cc3c(c(-c4cc(Cl)cc(F)c4Cl)n2)OC[C@]3(C)C(N)=O)C(F)(F)F)cc2cn(C3CC3)nc12 [Example 1259]
< 200 nM | COc1cc(C(=O)NCC(O)(c2cc3c(c(-c4cc(F)c(Cl)c(F)c4)n2)OC[C@]3(C)C(N)=O)C(F)(F)F)cc2cn(C3CC3)nc12 (some centres unmarked) [Example 1245]
< 200 nM | COc1ccc(-c2nc([C@@](O)(CNC(=O)c3cc(OC)c4nn(C5CC5)cc4c3)C(F)(F)F)cc3c2OC[C@]3(C)C(N)=O)cc1OC [Example 906]
< 200 nM | C[C@]1(C(N)=O)COc2c1cc([C@@](O)(CNC(=O)c1cc(OC3CC3)c3nn(C(F)F)cc3c1)C1CC1)nc2-c1cc(Cl)ccc1F [Example 1199]
< 200 nM | COc1cc(C(=O)NC[C@](O)(c2cc3c(c(-c4cc(Cl)c(F)cc4F)n2)OC[C@]3(C)C(N)=O)C2(F)CC2)cc2cc(Br)cnc12 [Example 1113]
< 200 nM | COc1cc(C(=O)NC[C@](O)(c2cc3c(c(-c4cc(F)cc(Cl)c4F)n2)OC[C@]3(C)C(N)=O)C(F)(F)F)cc2cn(C3CC3)nc12 [Example 1242]
< 200 nM | COc1cc(C(=O)NC[C@](O)(c2cc3c(c(-c4ccc5c(c4)OC(F)(F)O5)n2)OC[C@]3(C)C(N)=O)C2CC2)cc2sc(C)nc12 [Example 1291]
< 200 nM | COc1cc(C(=O)NC[C@](O)(c2cc3c(c(-c4cccc(F)c4Cl)n2)OC[C@]3(C)C(N)=O)C(F)(F)F)cc2cn(C3CC3)nc12 [Example 1107]
> 200 nM | C[C@]1(C(N)=O)COc2c1cc([C@@](O)(CNC(=O)c1ccc3nc(C4CC4)sc3c1)C1CC1)nc2-c1ccc2c(c1)OC(F)(F)O2 [Example 1292]
< 200 nM | COc1cc(C(=O)NC[C@](O)(c2cc3c(c(-c4cccc(F)c4Cl)n2)OC[C@]3(C)C(N)=O)C2CC2)cc2cc(C)c(Cl)nc12 [Example 1073]
< 200 nM | COc1cc(C(=O)NC[C@](O)(c2cc3c(c(-c4cc(Cl)c(Cl)cc4F)n2)OC[C@]3(C)C(N)=O)C(F)(F)F)cc2cn(C3CC3)nc12 [Example 1267]
< 200 nM | Cc1cc2cc(C(=O)NC[C@](O)(c3cc4c(c(-c5ccc(F)c(Cl)c5)n3)OC[C@]4(C)C(N)=O)C(F)(F)F)cc(OC3CC3)c2nc1Cl [Example 1076]
> 200 nM | COc1cc(C(=O)NC[C@@](O)(c2cc3c(c(-c4ccc(OC(F)(F)F)cc4)n2)OC[C@]3(C)C(N)=O)C(F)(F)F)cc2cn(C3CC3)nc12 [Example 897]

Same assay, conditions: human respiratory syncytial virus, genotype A “Long” strain RSV, MOI 0.1, CPE protection, read-out: Human RSV-A (“Long”)

EC50 | Structure (SMILES)
< 200 nM | COc1cc2ccc(C(=O)NC[C@](O)(c3cc4c(c(-c5ccc(F)cc5)n3)OC[C@]4(C)C(N)=O)C(F)(F)F)cc2cc1OC [Example 440]
> 200 nM | C[C@]1(C(N)=O)COc2c1cc([C@@](O)(CNC(=O)c1cccc3[nH]cnc13)C(F)(F)F)nc2-c1ccc(F)cc1 [Example 429]
> 200 nM | COc1ccc2nc(C(=O)NC[C@](O)(c3cc4c(c(-c5ccc(F)cc5)n3)OC[C@]4(C)C(N)=O)C(F)(F)F)sc2c1 [Example 394]
> 200 nM | C[C@]1(C(N)=O)COc2c1cc([C@@](O)(CNC(=O)c1cnn3cccc3c1Cl)C(F)(F)F)nc2-c1ccc(F)cc1 [Example 198]
> 200 nM | C[C@]1(C(N)=O)COc2c1cc([C@@](O)(CNC(=O)c1ccc3[nH]ncc3n1)C(F)(F)F)nc2-c1ccc(F)cc1 [Example 403]
> 200 nM | C[C@]1(C(N)=O)COc2c1cc([C@@](O)(CNC(=O)c1cc3cc(F)ccc3[nH]1)C(F)(F)F)nc2-c1ccc(F)cc1 [Example 422]
< 200 nM | COc1cc(C(=O)NC[C@](O)(c2cc3c(c(-c4ccc(F)cc4)n2)OC[C@]3(C)C(N)=O)C(F)(F)F)cc2nc(N)oc12 [Example 89]
> 200 nM | CC(C)Oc1ccc2cc(C(=O)NC[C@](O)(c3cc4c(c(-c5ccc(F)cc5)n3)OC[C@]4(C)C(N)=O)C(F)(F)F)[nH]c2c1 [Example 339]
> 200 nM | C[C@]1(C(N)=O)COc2c1cc([C@@](O)(CNC(=O)c1cnoc1C1CC1)C(F)(F)F)nc2-c1ccc(F)cc1 [Example 342]
> 200 nM | Cc1cc2cc(C(=O)NC[C@](O)(c3cc4c(c(-c5ccc(F)cc5)n3)OC[C@]4(C)C(N)=O)C(F)(F)F)ccc2n1C [Example 175]
> 200 nM | C[C@@H](O)COc1ccc(C(=O)NC[C@](O)(c2cc3c(c(-c4ccc(F)cc4)n2)OC[C@@]3(CF)C(N)=O)C(F)(F)F)cc1OC1CC1 [Example 293]
> 200 nM | Cc1cnc(C(=O)NC[C@](O)(c2cc3c(c(-c4ccc(F)cc4)n2)OC[C@]3(C)C(N)=O)C(F)(F)F)cn1 [Example 390]
> 200 nM | C[C@]1(C(N)=O)COc2c1cc([C@@](O)(CNC(=O)c1cn3cc(C(F)(F)F)ccc3n1)C(F)(F)F)nc2-c1ccc(F)cc1 [Example 810]
< 200 nM | C[C@H](O)CNc1nc2ccc(C(=O)NC[C@](O)(c3cc4c(c(-c5ccc(F)cc5)n3)OC[C@]4(C)C(N)=O)C(F)(F)F)cc2s1 [Example 163]
< 200 nM | CC[C@]1(C(N)=O)COc2c1cc([C@@](O)(CNC(=O)c1cc(OC)c3nn(C4CC4)cc3c1)C(F)(F)F)nc2-c1ccc(F)cc1 [Example 464]
> 200 nM | COc1ccccc1-c1nc(C(=O)NC[C@](O)(c2cc3c(c(-c4ccc(F)cc4)n2)OC[C@]3(C)C(N)=O)C(F)(F)F)c[nH]1 [Example 214]
< 200 nM | COc1cc(C(=O)NC[C@](O)(c2cc3c(c(-c4ccc(F)cc4)n2)OC[C@]3(C)C(N)=O)C2CC2)ccc1OC1CC1 [Example 316]
> 200 nM | C[C@]1(C(N)=O)COc2c1cc([C@@](O)(CNC(=O)c1cn3ccccc3n1)C(F)(F)F)nc2-c1ccc(F)cc1 [Example 413]
< 200 nM | COc1cnc2ccc(C(=O)NC[C@](O)(c3cc4c(c(-c5ccc(F)cc5)n3)OC[C@]4(C)C(N)=O)C(F)(F)F)cc2c1 [Example 229]
< 200 nM | Cc1cc(C(=O)NC[C@](O)(c2cc3c(c(-c4ccc(F)cc4)n2)OC[C@]3(C)C(N)=O)C(F)(F)F)ccn1 [Example 344]
< 200 nM | COc1cc(C(=O)NC[C@](O)(c2cc3c(c(-c4ccc(F)cc4)n2)OC[C@]3(C)C(N)=O)C(F)(F)F)cc2cn(CC(F)(F)F)nc12 [Example 99]
> 200 nM | COc1cc(C(=O)NC[C@](O)(c2cc3c(c(-c4ccc(F)cc4)n2)OC[C@]3(C(N)=O)C2CC2)C(F)(F)F)cn2cc(C3CC3)nc12 [Example 273]
< 200 nM | Cc1cnc2c(NC(=O)OC3CC3)cc(C(=O)NC[C@](O)(c3cc4c(c(-c5ccc(F)cc5)n3)OC[C@]4(C)C(N)=O)C(F)(F)F)cc2c1 [Example 216]
> 200 nM | C[C@]1(C(N)=O)COc2c1cc([C@@](O)(CNC(=O)c1cnn3ccncc13)C(F)(F)F)nc2-c1ccc(F)cc1 [Example 439]
> 200 nM | Cc1cc(C(=O)NC[C@](O)(c2cc3c(c(-c4ccc(F)cc4)n2)OC[C@]3(C)C(N)=O)C(F)(F)F)no1 [Example 381]
> 200 nM | C[C@]1(C(N)=O)COc2c1cc([C@@](O)(CNC(=O)c1ccc3[nH]nnc3c1)C(F)(F)F)nc2-c1ccc(F)cc1 [Example 107]
